Assay results published in patent publication US10369195B2, “Methods and compositions for preventing and treating damage to the heart” (MandalMed, Inc., priority 2016, dated 2019).

Legend:
[1] = system: rat ischemia-reperfusion model of MI; test: Serial echocardiography (ejection fraction, ESV, EDV) after ischemia-reperfusion MI; format: in vivo; settings: out to 8 weeks post-MI; Gal-3C 600 μg/day days 4-10; losartan 8 mg/kg/day in drinking water 56 days; 15/group
Protocol: Animal experiments to test the therapeutic potential of Gal-3C in the preservation of post-MI cardiac function were performed using surgical induction of MI in rodents and functional evaluation of treatment as previously described (61-66). To most accurately model cardiac damage experienced by MI patients, a well-established ischemia-reperfusion procedure was used in which the left anterior descending coronary artery (LAD) of rats was occluded for 25 min followed by restoration of blood flow (67). This standard MI model is more clinically relevant than permanent LAD ligation models because the reperfusion experienced after post-MI angioplasty not only limits the size of the infarct, but paradoxically introduces free radical damage, and is well validated as a model for post-MI heart failure experimental therapies (68).
Experiments were performed according to the UCSF guidelines for rodent survival surgery and the Guide for the Care and Use of Laboratory Animals of the US National Institutes of Health. Male Sprague-Dawley rats (age 10-12 weeks) were anesthetized with isoflurane (2%), received analgesics (buprenorphine (0.1 mg/kg), subcutaneous injection) pre- and post-operation, and underwent ischemia-reperfusion MI involving temporary (25 minutes) occlusion of the left anterior descending coronary artery (LAD) to produce regional moderate myocardial ischemia.
Briefly, rats were ventilated to a small animal volume-controlled ventilator (Harvard Rodent Ventilator, Model 683, South Natick, Mass.), and the heart was exposed via thoracotomy. Occlusion proceeds with a 7-0 nonabsorbable surgical suture passed under the LAD 2-3 mm from tip of the normally positioned left auricle and tied around a 1-mm section of PE-50 tubing, tightening with an artery clamp to temporarily occlude the LAD. After occlusion for 25 minutes, reperfusion was allowed to the formerly ischemic bed. The chest was then closed with removal of excess fluid and air from the chest cavity. All animals were monitored post-operation until they became ambulatory. The mortality during MI procedure was 12%.
The highest dose, 600 μg/rat/day, and the lowest dose, 200 μg/rat/day, were chosen for continued study, representing approximately 2- and 5.5-fold higher doses based on body surface area of rats than was used in the multiple myeloma study of Gal-3C in mice (70). Groups of rats (n=10) were treated with low (200 μg/day) and high (600 μg/day doses of Gal-3C or with PBS-lactose (vehicle control) administered over 0-6 days post-MI (“early window”; primed pumps were implanted several minutes before the MI procedure on day 0). These groups were designed to be sufficiently powered to detect potentially statistically significant improvement from Gal-3C treatment.
(§1) Pre-filled and primed mini-osmotic pumps were implanted a few minutes before surgical induction of MI and Gal-3C treatment continued for 7 days (denoted as “early window”) as in the pilot study described above. The effect of treatment on cardiac function was evaluated by serial echocardiography on day 0 pre-MI, 2 and 28 days post-MI, and LV pressure measurement at 28 days. For the early window, groups consisted of sham surgery with PBS, sham with 600 μg/day Gal-3C, MI with PBS, MI with 200 μg/day Gal-3C, and MI with 600 μg/day Gal-3C.
In a subsequent experiment, the high dose Gal-3C and the PBS control were administered by Alzet pump over a delayed delivery window of from 4 days until 10 days post-MI (denoted as “delayed window”) to rats that had been subjected to the same ischemia-reperfusion procedure as described in Example 2 above. Delayed treatment might better enable fibrotic repair of the infarct while preventing wall rupture. […]

[2] = system: rat ischemia-reperfusion model of MI; test: Intraventricular (LV) pressure / hemodynamic measurements after ischemia-reperfusion MI; format: in vivo; settings: 8 weeks post-MI; Gal-3C 600 μg/day days 4-10; losartan 8 mg/kg/day in drinking water 56 days; 15/group
Protocol: as §1
Serial echocardiography was performed at 2, 28, and 56 days (8 weeks) post-MI and terminal intraventricular pressure catheter measurements were obtained. The effect on cardiac function from losartan was compared to the effect of Gal-3C that included data from the 12 animals in the Gal-3C and the 12 animals in the vehicle-only group that were presented in FIG. 9 and FIG. 10. […] The results described herein indicate that treatment with Gal-3C post-MI would be more beneficial on recovery and preservation of heart function compared to treatment with losartan or another ARB alone.

CCCCc1nc(Cl)c(CO)n1Cc1ccc(-c2ccccc2-c2nn[nH]n2)cc1 [losartan, reference compound]
no significant benefit: EF, benefit relative to PBS [1] | LVEDP, benefit relative to PBS [2] | LVSP, benefit relative to PBS [2] | mean ABP, benefit relative to PBS [2]
